Where “and” joins values, the source holds several entries; their conditions need not be identical. Equal entries are not always repeated. Records with an inconclusive call do not appear.
Test system: nude mice, LX-1 lung xenograft intrarenal, tumor weight T/C
Experiment: NCI In Vivo Anticancer Drug Screen. Data for tumor model Human Lung LX-1 Xenograft (intrarenal inoculation) in NU/NU Swiss (nude) mice
Settings: endpoint: mean tumor weight change, higher = larger tumour
How it was run: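 Antitumor effect is expressed as a ratio: the mean tumor measurement of the drug-treated group relative to that of the vehicle-dosed control group.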

[1] = dose: 300.0 mg/kg/injection, schedule: Q04DX003 (sc), vehicle: saline with Tween-80
[2] = dose: 600.0 mg/kg/injection, schedule: Q04DX003 (sc), vehicle: saline with Tween-80
[3] = dose: 1200.0 mg/kg/injection, schedule: Q04DX003 (sc), vehicle: saline with Tween-80
[4] = dose: 100.0 mg/kg/injection, schedule: Q01DX010 (sc), vehicle: saline
[5] = dose: 2400.0 mg/kg/injection, schedule: Q04DX003 (sc), vehicle: saline with Tween-80
[6] = dose: 75.0 mg/kg/injection, schedule: Q04DX003 (sc), vehicle: saline with Tween-80
[7] = dose: 150.0 mg/kg/injection, schedule: Q04DX003 (sc), vehicle: saline with Tween-80
[8] = dose: 12.5 mg/kg/injection, schedule: Q01DX010 (sc), vehicle: saline with Tween-80
[9] = dose: 25.0 mg/kg/injection, schedule: Q01DX010 (sc), vehicle: saline with Tween-80
[10] = dose: 25.0 mg/kg/injection, schedule: Q04DX003 (sc), vehicle: saline
[11] = dose: 50.0 mg/kg/injection, schedule: Q04DX003 (sc), vehicle: saline
[12] = dose: 100.0 mg/kg/injection, schedule: Q04DX003 (sc), vehicle: saline
[13] = dose: 37.5 mg/kg/injection, schedule: Q04DX003 (sc), vehicle: saline with Tween-80

Compound: O=NN(CCCl)C(=O)NCCCl
- T/C (dose: 4.0 mg/kg/injection, schedule: Q01DX010 (sc), vehicle: saline): 44 % of control and 51 % of control and 65 % of control
- T/C (dose: 7.5 mg/kg/injection, schedule: Q04DX003 (sc), vehicle: suspension in saline): 90 % of control
- T/C (dose: 8.0 mg/kg/injection, schedule: Q01DX010 (sc), vehicle: saline): 16 % of control and 17 % of control
- T/C (dose: 13.33 mg/kg/injection, schedule: Q04DX003 (sc), vehicle: saline): 9 % of control
- T/C (dose: 15.0 mg/kg/injection, schedule: Q04DX003 (sc), vehicle: suspension in saline): 31 % of control
- T/C (dose: 16.0 mg/kg/injection, schedule: Q01DX010 (sc), vehicle: saline): -75 % of control and -72 % of control and -67 % of control
- T/C (dose: 26.65 mg/kg/injection, schedule: Q04DX003 (sc), vehicle: saline): -32 % of control
- T/C (dose: 30.0 mg/kg/injection, schedule: Q04DX003 (sc), vehicle: suspension in saline): 1 % of control
- T/C (dose: 32.0 mg/kg/injection, schedule: Q01DX010 (sc), vehicle: saline): -9 % of control and -3 % of control
- T/C (dose: 53.3 mg/kg/injection, schedule: Q04DX003 (sc), vehicle: saline): -84 % of control
- T/C (dose: 60.0 mg/kg/injection, schedule: Q04DX003 (sc), vehicle: suspension in saline): 16 % of control

Compound: O=C(O)CC(NC(=O)CP(=O)(O)O)C(=O)O.[NH-]C1CCCCC1[NH-].[Pt+2] (centres undefined)
- T/C (dose: 6.25 mg/kg/injection, schedule: Q04DX003 (sc), vehicle: dextrose): 86 % of control
- T/C (dose: 12.5 mg/kg/injection, schedule: Q04DX003 (sc), vehicle: dextrose): 72 % of control
- T/C (dose: 25.0 mg/kg/injection, schedule: Q04DX003 (sc), vehicle: dextrose): 54 % of control

Compound: O=C(Nc1nncs1)c1cccs1
- T/C [1]: 119 % of control
- T/C [2]: 85 % of control
- T/C [3]: 120 % of control

Compound: COc1cc(C(=O)c2cocc2C(=O)c2ccc3c(c2)OCO3)cc(OC)c1OC
- T/C (dose: 300.0 mg/kg/injection, schedule: Q04DX003 (sc), vehicle: Klucel (hydroxypropylcellulose) (HPC)): 160 % of control
- T/C (dose: 600.0 mg/kg/injection, schedule: Q04DX003 (sc), vehicle: Klucel (hydroxypropylcellulose) (HPC)): 80 % of control
- T/C (dose: 1200.0 mg/kg/injection, schedule: Q04DX003 (sc), vehicle: Klucel (hydroxypropylcellulose) (HPC)): 94 % of control

Compound: OCC1OC(n2cnc3c(Cl)ncnc32)C(O)C1O (centres undefined)
- T/C [4]: 74 % of control
- T/C (dose: 200.0 mg/kg/injection, schedule: Q01DX010 (sc), vehicle: saline): 96 % of control and 103 % of control
- T/C (dose: 400.0 mg/kg/injection, schedule: Q01DX010 (sc), vehicle: saline): 80 % of control and 99 % of control
- T/C (dose: 800.0 mg/kg/injection, schedule: Q01DX010 (sc), vehicle: saline): 112 % of control

Compound: COc1cc(Cl)ccc1C
- T/C [1]: 116 % of control
- T/C [2]: 88 % of control
- T/C [3]: 100 % of control
- T/C [5]: 121 % of control

Compound: CC1(C)CC23C4COC(=O)C2CCC1C3CC4=O (centres undefined)
- T/C (dose: 150.0 mg/kg/injection, schedule: Q04DX003 (sc), vehicle: DMSO): 88 % of control
- T/C (dose: 300.0 mg/kg/injection, schedule: Q04DX003 (sc), vehicle: DMSO): 51 % of control
- T/C (dose: 600.0 mg/kg/injection, schedule: Q04DX003 (sc), vehicle: DMSO): 67 % of control
- T/C (dose: 1200.0 mg/kg/injection, schedule: Q04DX003 (sc), vehicle: DMSO): 63 % of control

Compound: N[C@@H](Cc1ccc(N(CCCl)CCCl)cc1)C(=O)O
- T/C (dose: 1.0 mg/kg/injection, schedule: Q01DX010 (sc), vehicle: saline): 107 % of control

Compound: C[Si](C)(C)n1nnn(-c2ccccc2)c1=O
- T/C [6]: 94 % of control
- T/C [7]: 105 % of control
- T/C [1]: 107 % of control

Compound: CC1CN1P1(N2CC2C)=NP(N2CC2C)(N2CC2C)=NP(N2CC2C)(N2CC2C)=N1 (centres undefined)
- T/C (dose: 50.0 mg/kg/injection, schedule: Q01DX010 (sc), vehicle: saline): 47 % of control and 60 % of control and 67 % of control
- T/C [4]: 14 % of control and 15 % of control and 25 % of control

Compound: C[C@]12CC[C@H]3[C@@H](CCC4=C[C@@H](OC5OCC(OC6OC(CO)C(O)C(O)C6O)C(O)C5O)CC[C@@]43C=O)[C@@]1(O)CCC2C1=CC(=O)OC1 (some centres undefined)
- T/C (dose: 7.5 mg/kg/injection, schedule: Q04DX003 (sc), vehicle: Klucel (hydroxypropylcellulose) (HPC)): 77 % of control
- T/C (dose: 30.0 mg/kg/injection, schedule: Q04DX003 (sc), vehicle: Klucel (hydroxypropylcellulose) (HPC)): 79 % of control
- T/C (dose: 60.0 mg/kg/injection, schedule: Q04DX003 (sc), vehicle: Klucel (hydroxypropylcellulose) (HPC)): 79 % of control

Compound: O=NN(CCCl)C(=O)NC1[C@H](O)CCC[C@@H]1O (some centres undefined)
- T/C (dose: 5.0 mg/kg/injection, schedule: Q04DX003 (sc), vehicle: saline): 25 % of control and 30 % of control and 48 % of control

Compound: CN(N=O)C(N)=O
- T/C [8]: -64 % of control
- T/C (dose: 12.5 mg/kg/injection, schedule: Q04DX003 (sc), vehicle: saline): 19 % of control
- T/C [9]: -69 % of control
- T/C [10]: 7 % of control
- T/C [11]: 12 % of control
- T/C [12]: 1 % of control

Compound: O=C(O)c1ccc(C(=O)O)c(C(=O)O)c1.[NH-]C1CCCCC1[NH-].[Pt+2]
- T/C (dose: 3.12 mg/kg/injection, schedule: Q01DX010 (sc), vehicle: sodium bicarbonate): 101 % of control
- T/C (dose: 6.25 mg/kg/injection, schedule: Q01DX010 (sc), vehicle: sodium bicarbonate): 74 % of control

Compound: CCCCCCCCCCCCCCCC(=O)Nc1ccn(C2OC(CO)C(O)C2O)c(=O)n1 (centres undefined)
- T/C (dose: 150.0 mg/kg/injection, schedule: Q04DX003 (sc), vehicle: water): 32 % of control and 33 % of control

Compound: O=C(O)C1CC1.[Ag]
- T/C [13]: 63 % of control
- T/C [6]: 57 % of control
- T/C [7]: 62 % of control
- T/C [1]: 54 % of control

Compound: CO[C@H]1Nc2c(ccc(C)c2O)C(=O)N2C=C(/C=C/C(N)=O)C[C@@H]12
- T/C (dose: 0.25 mg/kg/injection, schedule: Q04DX003 (sc), vehicle: saline + alcohol): 48 % of control
- T/C (dose: 0.5 mg/kg/injection, schedule: Q04DX003 (sc), vehicle: saline + alcohol): 75 % of control
- T/C (dose: 1.0 mg/kg/injection, schedule: Q04DX003 (sc), vehicle: saline + alcohol): 115 % of control
- T/C (dose: 2.0 mg/kg/injection, schedule: Q04DX003 (sc), vehicle: saline + alcohol): 39 % of control

Compound: O=C1c2ccccc2C(=O)c2c(NCCNCCO)ccc(O)c21
- T/C (dose: 12.5 mg/kg/injection, schedule: Q04DX003 (sc), vehicle: suspension in saline): 94 % of control
- T/C [10]: 90 % of control
- T/C (dose: 25.0 mg/kg/injection, schedule: Q04DX003 (sc), vehicle: suspension in saline): 108 % of control
- T/C [11]: 74 % of control
- T/C (dose: 50.0 mg/kg/injection, schedule: Q04DX003 (sc), vehicle: suspension in saline): 90 % of control
- T/C [12]: 61 % of control
- T/C (dose: 100.0 mg/kg/injection, schedule: Q04DX003 (sc), vehicle: suspension in saline): 92 % of control
- T/C (dose: 200.0 mg/kg/injection, schedule: Q04DX003 (sc), vehicle: saline): 93 % of control

Compound: O=C1C=C2C(=CCOC2O)O1 (centres undefined)
- T/C (dose: 1.0 mg/kg/injection, schedule: Q04DX003 (sc), vehicle: Klucel (hydroxypropylcellulose) (HPC)): 158 % of control
- T/C (dose: 2.0 mg/kg/injection, schedule: Q04DX003 (sc), vehicle: Klucel (hydroxypropylcellulose) (HPC)): 92 % of control
- T/C (dose: 8.0 mg/kg/injection, schedule: Q04DX003 (sc), vehicle: Klucel (hydroxypropylcellulose) (HPC)): 151 % of control

Compound: CCC1CN2C(=N1)c1ccccc1-c1cc(Cl)ccc12 (centres undefined)
- T/C [8]: 54 % of control
- T/C [9]: 60 % of control
- T/C (dose: 50.0 mg/kg/injection, schedule: Q01DX010 (sc), vehicle: saline with Tween-80): 107 % of control

Compound: Clc1cc(Cl)c(C[N+]23CN4CN(CN(C4)C2)C3)cc1Cl
- T/C (dose: 18.75 mg/kg/injection, schedule: Q04DX003 (sc), vehicle: saline with Tween-80): 76 % of control
- T/C [13]: 96 % of control
- T/C [6]: 91 % of control
- T/C [7]: 107 % of control

Compound: COC1C(C)OC(OC2CC(C)(O)Cc3cc4c(c(O)c32)C(=O)c2c(O)cc3c(c2C4=O)OC2OC3(C)C(O)C(N(C)C)C2O)C(OC)C1(C)OC (centres undefined)
- T/C (dose: 5.0 mg/kg/injection, schedule: Q04DX003 (sc), vehicle: Klucel (hydroxypropylcellulose) (HPC)): 118 % of control
- T/C (dose: 20.0 mg/kg/injection, schedule: Q04DX003 (sc), vehicle: Klucel (hydroxypropylcellulose) (HPC)): 60 % of control
- T/C (dose: 40.0 mg/kg/injection, schedule: Q04DX003 (sc), vehicle: Klucel (hydroxypropylcellulose) (HPC)): 98 % of control

Compound: CCOC(=O)CNC(=O)CCCCSc1ncnc2nc[nH]c12
- T/C [1]: 80 % of control
- T/C [2]: 86 % of control
- T/C [3]: 85 % of control
- T/C [5]: 114 % of control
